# Structures can show the parent of a compound that is named as a salt.
# Tested on: histamine induced paw oedema
# Test: Histamine induced paw oedema
# Format: in vivo, male Sprague-Dawley rats
# Conditions: at 1 mg/kg, intraperitoneally 15 minutes before the anesthetics, rats, paw swelling 20 minutes after histamine
# Experimental: II. Histamine induced paw oedema Values for in vivo inhibition of […] induced oedema for the compounds of the present invention were assessed in rats essentially as described by Amann et al. (Europ. J. Pharmacol. 30 279, 227-231, 1995). In brief 250-300 g male Sprague-Dawley rats were […] pentobarbital sodium, and placed on a 32 degree heated table. Ten minutes later histamine (50 microliter, 3 mg/ml) was injected in the right hind paw and 20 minutes hereafter the paw swelling was determined by water plethysmography (Ugo Basile). Test compounds were administered intraperitoneally at 15 minutes before the anesthetics. |Inhibition of histamine induced oedema at 1 mg/kg
row,SMILES,% oedema inhibition [%]
1,"Cl.O=C(O)[C@@H]1CCCN(CCC=C2c3ccccc3OCOc3ccccc32)C1 [Example 2, (R)-1-(3-(12H-Dibenzo[d,g][1,3]dioxocin-12-ylidene)-1-propyl)-3-piperidinecarboxylic acid hydrochloride]",52
2,"CCOC(=O)[C@@H]1CCCN(CCC=C2c3ccccc3OCOc3ccccc32)C1 [Example 3, (R)-1-(3-(12H-Dibenzo[d,g][1,3]doxocin-12-ylidene)-1-propyl)-3-piperidinecarboxylic acid ethyl ester hydrochloride]",33

# Source: US5753678A, “Heterocyclic compounds” (Novo Nordisk A/S, priority 1995, dated 1998)
